Test results taken from patent US6867284B1, “Peptide inhibitors of hepatitis C virus NS3 protease” (Istituto di Ricerche di Biologia Molecolare P. Angeletti …, priority 1998, dated 2005).
Numbered stars: 1 amine (or outer) side, 2 acyl side, 3 side chain; on linkers, the order of the positions; unused ones are H or OH. Square brackets hold non-standard residues; d marks the D form. Peptide text beside a SMILES is read from it. * marks the point of attachment. ξ: configuration not given here. ξAbu(4,4-F2)ψ(COCO) = O=C(C(=O)[*:2])C(CC(F)F)N[*:1]; Dip = N[C@H](C(=O)O)C(c1ccccc1)c1ccccc1; X6 = O=C(NS(=O)(=O)c1ccccc1)C(CC(F)F)N*; X5 = O=C(c1nc2ccccc2s1)C(CC(F)F)N*; X8 = O=C(c1nc2ccccc2o1)C(CC(F)F)N*; X1 = O=C(c1ncc[nH]1)C(CC(F)F)N*; ξAla(CF3) = NC(CC(F)(F)F)C(=O)O; Cha = N[C@@H](CC1CCCCC1)C(=O)O; Ile(3ξ) = CCC(C)[C@H](N)C(=O)O; X3 = O=C(C(CC(F)F)N[*:1])[*:2]; Suc = O=C(CCC(=O)[*:2])[*:1]; X2 = O=C(c1ccco1)C(CC(F)F)N*; X4 = COC(=O)C(=O)C(CC(F)F)N*; X7 = O=C(c1nccs1)C(CC(F)F)N*; X9 = O=C(O)CC(CC(F)F)N*; NHBn = c1ccc(CN*)cc1

Each molecule was assayed against T1, HCV NS3 protease (Hepatitis C virus genotype 1b, UniProt P26663) (assay: Inhibition of NS3 protease (HPLC cleavage assay, NS3/4A complex with Pep4AK, substrate peptide 4AB)). Conditions: IC50, Table 1 hexapeptides, cell printed without unit.
T1 construct: an NS3/4A complex comprising the NS3 protease domain
T1 sequence (P26663 1027-1208, other chains not shown): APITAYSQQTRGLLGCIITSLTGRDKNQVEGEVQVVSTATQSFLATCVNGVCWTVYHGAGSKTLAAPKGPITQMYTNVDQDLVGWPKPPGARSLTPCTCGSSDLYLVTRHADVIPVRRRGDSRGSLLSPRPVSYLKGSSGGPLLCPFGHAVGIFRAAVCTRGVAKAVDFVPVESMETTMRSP
Format: biochemical
Protocol: Buffer solutions containing 80 μM Pep4AK were preincubated for 10 minutes with 10-200 nM protease and reactions were started by addition of substrate. Six duplicate data points at different substrate concentrations were used to calculate kinetic parameters. Incubation times were chosen in order to obtain <7% substrate conversion and reactions were stopped by addition of 40 μl 1% TFA. Cleavage of peptide substrates was determined by HPLC using a Merck-Hitachi chromatograph equipped with an autosampler. 80 μl samples were injected on a Lichrospher C18 reversed phase cartridge column (4×74 mm, 5 μm, Merck) and fragments were separated using a 10-40% acetonitrile gradient a 5%/min using a flow rate of 2.5 ml/min. Peak detection was accomplished by monitoring both the absorbance at 220 nm and tyrosine fluorescence (λex=260 nm, λem=305 nm). Cleavage products were quantitated by integration of chromatograms with respect to appropriate standards. Kinetic parameters were calculated from nonlinear least-squares fit of initial rates as a function of substrate concentration with the help of a Kaleidagraph software, assuming Michaelis-Menten kinetics.
Ki values of peptide inhibitors were calculated from substrate titration experiments performed in the presence of increasing amounts of inhibitor. Experimental data sets were simultaneously fitted to eq.1 using a multicurve fit macro with the help of a Sigmaplot software: V=(VmaxS)/(Km(1+[…])+S); (eq.1)
Alternatively, Ki values were derived from IC50 values, calculated using a four-parameter logistic function, according to eq.2: IC50−(1+S/Km)Ki (eq.2)

SMILES | IC50 [nM]
CSCC[C@H](NC(=O)[C@H](CCC(=O)O)NC(=O)[C@H](CC(=O)O)NC(C)=O)C(=O)N[C@@H](CCC(=O)O)C(=O)N[C@@H](CCC(=O)O)C(=O)NC(CC(F)F)C(=O)O (stereo partly shown) [Compound 1a] (Ac-DEMEE[X3]-OH) | 3000

Same assay, conditions: Table 1 hexapeptides, cells printed in nM; read-out: IC50

SMILES | IC50 [nM]
CC(=O)N[C@@H](CC(=O)O)C(=O)N[C@@H](CCC(=O)O)C(=O)N[C@H](C(=O)N[C@@H](CCC(=O)O)C(=O)N[C@@H](CC1CCCCC1)C(=O)NC(CC(F)F)C(=O)C(=O)O)C(c1ccccc1)c1ccccc1 (stereo partly shown) [Compound 1d] (Ac-DE[Dip]E[Cha]-{ξAbu(4,4-F2)ψ(COCO)}) | 0.4
CC(=O)N[C@@H](CC(=O)O)C(=O)N[C@@H](CCC(=O)O)C(=O)N[C@H](C(=O)N[C@@H](CCC(=O)O)C(=O)N[C@@H](CC1CCCCC1)C(=O)NC(CC(F)F)C(=O)C(=O)NCc1ccccc1)C(c1ccccc1)c1ccccc1 (stereo partly shown) [Compound 1e] (Ac-DE[Dip]E[Cha][ξAbu(4,4-F2)ψ(COCO)]-NHBn) | 5
COC(=O)C(=O)C(CC(F)F)NC(=O)[C@H](CC1CCCCC1)NC(=O)[C@H](CCC(=O)O)NC(=O)[C@@H](NC(=O)[C@H](CCC(=O)O)NC(=O)[C@H](CC(=O)O)NC(C)=O)C(c1ccccc1)c1ccccc1 (stereo partly shown) [Compound 1f] (Ac-DE[Dip]E[Cha]-X4) | 800
CC(=O)N[C@@H](CC(=O)O)C(=O)N[C@@H](CCC(=O)O)C(=O)N[C@H](C(=O)N[C@@H](CCC(=O)O)C(=O)N[C@@H](CC1CCCCC1)C(=O)NC(CC(F)(F)F)C(=O)O)C(c1ccccc1)c1ccccc1 (stereo partly shown) [Compound 1g] (Ac-DE[Dip]E[Cha][ξAla(CF3)]-OH) | 100
CC(=O)N[C@@H](CC(=O)O)C(=O)N[C@@H](CCC(=O)O)C(=O)N[C@H](C(=O)N[C@@H](CCC(=O)O)C(=O)N[C@@H](CC1CCCCC1)C(=O)NC(CC(F)F)C(=O)c1nc2ccccc2s1)C(c1ccccc1)c1ccccc1 (stereo partly shown) [Compound 1i] (Ac-DE[Dip]E[Cha]-X5) | 150
CC(=O)N[C@@H](CC(=O)O)C(=O)N[C@@H](CCC(=O)O)C(=O)N[C@H](C(=O)N[C@@H](CCC(=O)O)C(=O)N[C@@H](CC1CCCCC1)C(=O)NC(CC(F)F)C(=O)c1nc2ccccc2o1)C(c1ccccc1)c1ccccc1 (stereo partly shown) [Compound 1j] (Ac-DE[Dip]E[Cha]-X8) | 600
CSCC[C@H](NC(=O)[C@H](CCC(=O)O)NC(=O)[C@H](CC(=O)O)NC(C)=O)C(=O)N[C@@H](CCC(=O)O)C(=O)N[C@@H](CCC(=O)O)C(=O)NC(C=O)CC(F)F (stereo partly shown) [Compound 1n] (Ac-DEMEE[X3]-aldehyde) | 148
CCC(C)[C@H](NC(=O)[C@@H](NC(=O)[C@H](CCC(=O)O)NC(=O)CCC(=O)O)C(c1ccccc1)c1ccccc1)C(=O)N[C@@H](CC1CCCCC1)C(=O)NC(CC(F)F)C(=O)NS(=O)(=O)c1ccccc1 (stereo partly shown) [Compound 1o] (Suc-E[Dip][Ile(3ξ)][Cha]-X6) | 800

Same assay, conditions: Table 1 hexapeptides, cells printed in μM; read-out: IC50

SMILES | IC50 [nM]
CC(=O)N[C@@H](CC(=O)O)C(=O)N[C@@H](CCC(=O)O)C(=O)N[C@H](C(=O)N[C@@H](CCC(=O)O)C(=O)N[C@@H](CC1CCCCC1)C(=O)NC(CC(=O)O)CC(F)F)C(c1ccccc1)c1ccccc1 (stereo partly shown) [Compound 1h] (Ac-DE[Dip]E[Cha]-X9) | 3000
CC(=O)N[C@@H](CC(=O)O)C(=O)N[C@@H](CCC(=O)O)C(=O)N[C@H](C(=O)N[C@@H](CCC(=O)O)C(=O)N[C@@H](CC1CCCCC1)C(=O)NC(CC(F)F)C(=O)c1nccs1)C(c1ccccc1)c1ccccc1 (stereo partly shown) [Compound 1k] (Ac-DE[Dip]E[Cha]-X7) | 1000
CC(=O)N[C@@H](CC(=O)O)C(=O)N[C@@H](CCC(=O)O)C(=O)N[C@H](C(=O)N[C@@H](CCC(=O)O)C(=O)N[C@@H](CC1CCCCC1)C(=O)NC(CC(F)F)C(=O)c1ncc[nH]1)C(c1ccccc1)c1ccccc1 (stereo partly shown) [Compound 1l] (Ac-DE[Dip]E[Cha]-X1) | 6000
CC(=O)N[C@@H](CC(=O)O)C(=O)N[C@@H](CCC(=O)O)C(=O)N[C@H](C(=O)N[C@@H](CCC(=O)O)C(=O)N[C@@H](CC1CCCCC1)C(=O)NC(CC(F)F)C(=O)c1ccco1)C(c1ccccc1)c1ccccc1 (stereo partly shown) [Compound 1m] (Ac-DE[Dip]E[Cha]-X2) | 7000

Same assay, conditions: Table 2 tetrapeptides and tripeptides; read-out: IC50

SMILES | IC50 [nM]
CC(=O)N[C@H](C(=O)N[C@@H](CCC(=O)O)C(=O)N[C@@H](CC1CCCCC1)C(=O)NC(CC(F)F)C(=O)C(=O)O)C(c1ccccc1)c1ccccc1 (stereo partly shown) [Compound 2a] | 10000
CC(=O)N[C@H](C(=O)N[C@@H](CCC(=O)O)C(=O)N[C@@H](CC1CCCCC1)C(=O)NC(CC(F)F)C(=O)C(=O)NCc1ccccc1)C(c1ccccc1)c1ccccc1 (stereo partly shown) [Compound 2b] | 11400
CC(=O)N[C@H]1Cc2cccc(c2)Oc2ccc(cc2)C[C@@H](C(=O)NC(CC(F)F)C(=O)C(=O)O)NC(=O)[C@H](CCC(=O)O)NC1=O (stereo partly shown) [Compound 2c] | 47000
CCC(C)[C@H](NC(=O)OCc1ccccc1)C(=O)N[C@H](C(=O)NC(CC(F)F)C(=O)C(=O)O)C(C)C (stereo partly shown) [Compound 3a] | 16000
CCC(C)[C@H](NC(=O)OCc1ccccc1)C(=O)N[C@@H](CC1CCCCC1)C(=O)NC(CC(F)F)C(=O)C(=O)O (stereo partly shown) [Compound 3b] | 1400
CCC(C)[C@H](NC(=O)OCc1ccccc1)C(=O)N[C@@H](CC(C)C)C(=O)NC(CC(F)F)C(=O)C(=O)O (stereo partly shown) [Compound 3c] | 1400
CCC(C)[C@H](NC(=O)OCc1ccccc1)C(=O)N[C@@H](CCC(=O)O)C(=O)NC(CC(F)F)C(=O)C(=O)O (stereo partly shown) [Compound 3d] | 9300
CCC(C)[C@H](NC(=O)OCc1ccccc1)C(=O)N[C@@H](CC)C(=O)NC(CC(F)F)C(=O)C(=O)O (stereo partly shown) [Compound 3e] | 3000
CCC(C)[C@H](NC(=O)OCc1ccccc1)C(=O)N[C@@H](Cc1ccccc1)C(=O)NC(CC(F)F)C(=O)C(=O)O (stereo partly shown) [Compound 3f] | 3000
CCC(C)[C@H](NC(=O)OCc1ccccc1)C(=O)N[C@@H](C)C(=O)NC(CC(F)F)C(=O)C(=O)O (stereo partly shown) [Compound 3g] | 16000
CCC(C)[C@H](NC(=O)NCc1ccccc1)C(=O)N[C@@H](CC(C)C)C(=O)NC(CC(F)F)C(=O)C(=O)O (stereo partly shown) [Compound 4a] | 6500
CCC(C)[C@H](NC(=O)NCc1cc(C(F)(F)F)cc(C(F)(F)F)c1)C(=O)N[C@@H](CC(C)C)C(=O)NC(CC(F)F)C(=O)C(=O)O (stereo partly shown) [Compound 4b] | 39000
CCC(C)[C@H](NC(=O)OCc1ccc(C(=O)OC)cc1)C(=O)N[C@@H](CC(C)C)C(=O)NC(CC(F)F)C(=O)C(=O)O (stereo partly shown) [Compound 4c] | 1700
CCC(C)[C@H](NC(=O)OCc1ccc(C(=O)O)cc1)C(=O)N[C@@H](CC(C)C)C(=O)NC(CC(F)F)C(=O)C(=O)O (stereo partly shown) [Compound 4d] | 440
CCC(C)[C@H](NC(=O)OCC1c2ccccc2-c2ccccc21)C(=O)N[C@@H](CC(C)C)C(=O)NC(CC(F)F)C(=O)C(=O)O (stereo partly shown) [Compound 4e] | 7800
CCC(C)[C@H](NC(=O)OC(C)(C)C)C(=O)N[C@@H](CC(C)C)C(=O)NC(CC(F)F)C(=O)C(=O)O (stereo partly shown) [Compound 4f] | 1000
CC[C@@H](C)[C@H](NC(=O)OC(C)(C)C)C(=O)N[C@@H](CC(C)C)C(=O)NC(CC(F)F)C(=O)C(=O)O (stereo partly shown) [Compound 5a] | 700
CC(C)C[C@H](NC(=O)OC(C)(C)C)C(=O)N[C@@H](CC(C)C)C(=O)NC(CC(F)F)C(=O)C(=O)O (stereo partly shown) [Compound 5b] | 1200
CC(C)C[C@H](NC(=O)[C@H](Cc1ccccc1)NC(=O)OC(C)(C)C)C(=O)NC(CC(F)F)C(=O)C(=O)O (stereo partly shown) [Compound 5c] | 1500
CC(C)C[C@H](NC(=O)[C@@H](NC(=O)OC(C)(C)C)C(C)C)C(=O)NC(CC(F)F)C(=O)C(=O)O (stereo partly shown) [Compound 5d] | 500
CC(C)C[C@H](NC(=O)[C@H](C)NC(=O)OC(C)(C)C)C(=O)NC(CC(F)F)C(=O)C(=O)O (stereo partly shown) [Compound 5f] | 8900
CCCC[C@H](NC(=O)OC(C)(C)C)C(=O)N[C@@H](CC(C)C)C(=O)NC(CC(F)F)C(=O)C(=O)O (stereo partly shown) [Compound 5g] | 1200
CCC[C@H](NC(=O)OC(C)(C)C)C(=O)N[C@@H](CC(C)C)C(=O)NC(CC(F)F)C(=O)C(=O)O (stereo partly shown) [Compound 5h] | 1500
CC(C)C[C@H](NC(=O)[C@H](CCC(=O)OCc1ccccc1)NC(=O)OC(C)(C)C)C(=O)NC(CC(F)F)C(=O)C(=O)O (stereo partly shown) [Compound 5i] | 5800
CC(C)C[C@H](NC(=O)[C@H](CCC(=O)O)NC(=O)OC(C)(C)C)C(=O)NC(CC(F)F)C(=O)C(=O)O (stereo partly shown) [Compound 5j] | 330

Same assay, conditions: Table 4 indoline keto acids and related; read-out: IC50

SMILES | IC50 [nM]
CC(C)C[C@H](NC(=O)C1Cc2ccc(OCC(=O)O)cc2N1)C(=O)NC(CC(F)F)C(=O)C(=O)O (single isomer, unassigned) [Compound 10f] | 10000
CC(C)C[C@H](NC(=O)C1Cc2ccc(OC3CCS(=O)(=O)CC3)cc2N1)C(=O)NC(CC(F)F)C(=O)C(=O)O (single isomer, unassigned) [Compound 10i] | 30000
CC(C)CC1c2ccccc2NC1C(=O)N[C@@H](CC(C)C)C(=O)NC(CC(F)F)C(=O)C(=O)O (single isomer, unassigned) [Compound 12] | 26000
CC(C)C[C@H](NC(=O)c1cc2ccccc2[nH]1)C(=O)NC(CC(F)F)C(=O)C(=O)O (single isomer, unassigned) [Compound 13] | 70000
CC(C)C[C@H](NC(=O)c1[nH]c2ccccc2c1OC(C(=O)O)c1cccc(Cl)c1)C(=O)NC(CC(F)F)C(=O)C(=O)O (single isomer, unassigned) [Compound 14] | 10000
